Results: paper PMC2074590 (British Journal of Cancer, 1996)
Like-named read-outs stand apart in the source and are kept apart here.

Assays:
[1] = Body weight at monthly review; assay type: in vivo, human
Procedure: Bridsh Journal of Cancer (1996) 74, 300-308 ? […] The agent was administered as a monthly depot intramuscular injection. […] The study was approved by the ethics committees of each clinical centre. Patients were eligible for the study if they were post- menopausal and age less than 81 years, with histologically verified breast cancer. […] Patients were excluded if they had serious intercurrent disease, a WHO performance status of greater than 2, and a life expectancy of less than 3 months or had received previous cytotoxic chemotherapy for advanced breast cancer. […] Patients 5-19 received 250 mg month-1 i.m. from the outset. […] Tumour response to therapy was evaluated according to UICC criteria (Hayward et al., 1977). To qualify for the 'no change' category, tumour growth had to stabilise for more than 6 months (Howell et al., 1988; Robertson et al., 1989). Body weight was recorded at each monthly review in the majority of patients. […] The procedure was applied after solid base clean up of a diethyl ether/hexane extract of serum. The study limit of quantification was 0.68 ng ml-'. […] Gonadotrophins follicle-stimulating hormone and lutenising hormone (FSH and LH) and SHBG were measured by RIA in the Regional Radioimmunoassay Laboratory of the University Hospital of South Manchester. Prolactin was measured by immunoradiometric assay using reagents supplied by Netria. Total cholesterol levels were determined enzymatically using a commercially available reagent (Diamed, Switzerland). Triglyceride levels were determined by the glyceryl phosphate oxidase-peroxidase-antiperox- idase method using a commercially available kit (Boehringer Mannheim, Germany). High-density lipoprotein (HDL) cholesterol levels were measured after pretreatment of the serum samples with buffered magnesium phosphotungstate, which selectively precipitates low-density lipoprotein (LDL) cholesterol, very low-density lipoprotein (VLDL) cholesterol and chylomicrons, leaving HDL cholesterol in the super- natant. Serum levels of LDL cholesterol were calculated using the Friedewald equation (Friedewald et al., 1972). […]

[2] = test system: endometrial proliferation; parameters: method as in Dukes et al., 1993; conditions: primates, at serum concentrations similar to the present study; ref Dukes et al., 1993; cited from earlier work
[3] = Serum concentrations of ICI 182780 by radioimmunoassay (pharmacokinetics of monthly i.m. depot); assay type: in vivo, human; conditions: for Cmax: human, serum;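 on AUC on entry: AUC over the first monthly dosing interval after the first injection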
Procedure: Bridsh Journal of Cancer (1996) 74, 300-308 ? […] The agent was administered as a monthly depot intramuscular injection. […] The study was approved by the ethics committees of each clinical centre. Patients were eligible for the study if they were post- menopausal and age less than 81 years, with histologically verified breast cancer. […] Patients were excluded if they had serious intercurrent disease, a WHO performance status of greater than 2, and a life expectancy of less than 3 months or had received previous cytotoxic chemotherapy for advanced breast cancer. […] Patients 5-19 received 250 mg month-1 i.m. from the outset. […] Tumour response to therapy was evaluated according to UICC criteria (Hayward et al., 1977). To qualify for the 'no change' category, tumour growth had to stabilise for more than 6 months (Howell et al., 1988; Robertson et al., 1989). Body weight was recorded at each monthly review in the majority of patients. […] The procedure was applied after solid base clean up of a diethyl ether/hexane extract of serum. The study limit of quantification was 0.68 ng ml-'. […] Gonadotrophins follicle-stimulating hormone and lutenising hormone (FSH and LH) and SHBG were measured by RIA in the Regional Radioimmunoassay Laboratory of the University Hospital of South Manchester. Prolactin was measured by immunoradiometric assay using reagents supplied by Netria. Total cholesterol levels were determined enzymatically using a commercially available reagent (Diamed, Switzerland). Triglyceride levels were determined by the glyceryl phosphate oxidase-peroxidase-antiperox- idase method using a commercially available kit (Boehringer Mannheim, Germany). High-density lipoprotein (HDL) cholesterol levels were measured after pretreatment of the serum samples with buffered magnesium phosphotungstate, which selectively precipitates low-density lipoprotein (LDL) cholesterol, very low-density lipoprotein (VLDL) cholesterol and chylomicrons, leaving HDL cholesterol in the super- natant. Serum levels of LDL cholesterol were calculated using the Friedewald equation (Friedewald et al., 1972). Endometrial assessment Endometrial thickness was measured in transverse section by transabdominal ultrasound using a Siemens Sonoline SL2 with a 3.5 MHz sector probe. Baseline and repeat scans at 3-6 monthly intervals were performed in five patients. […] Pharmacokinectic data were analysed using para- metric statistics. Data relating to body weight, serum gonadotrophin, SHBG and lipid levels were analysed using non-parametric statistics. The null hypothesis was rejected at a probability level of P<0.05. […] However, samples were not available between day 2 and day 8.

[4] = 250 mg monthly i.m., first month
[5] = 250 mg monthly i.m., sixth month
[6] = patient 5 (partial response), 250 mg
[7] = patient 8 (partial response), 250 mg
[8] = patient 10 (partial response), 250 mg
[9] = patient 13 (progressive disease), 250 mg
[10] = patient 14 (partial response), 250 mg
[11] = patient 16 (partial response), 250 mg

## C[C@]12CC[C@@H]3c4ccc(O)cc4C[C@@H](CCCCCCCCC[S+]([O-])CCCC(F)(F)C(F)(F)F)[C@H]3[C@@H]1CC[C@@H]2O (stereo partly shown) [ICI 182780, 7a-[9(4,4,5,5,pentafluoropentyl-sulphinyl)nonyl]oestra-1 ,3,5,(10)-triene-3,17,B-diol]
[1]; after 10 months, n = 9
  Mean body weight (s.d.): 64.5 ± 17.2 kg
[1]; after 16 months, n=9
  Mean body weight (s.d.): 64.2 ± 18.3 kg
[1]; baseline mean 63.8 kg (n=13)
  Change in body weight during treatment: no significant changes
[2]
  Effect on endometrial proliferation: inhibited endometrial proliferation
[3]; [4]
  AUC, first month: 140.5 ng·days/mL
  Mean end-of-month concentration, first month: 3.1 ng/mL
[3]; [5]
  AUC, sixth month: 206.8 ng·days/mL
  Mean end-of-month concentration, sixth month: 5.6 ng/mL
[3]; after 6 months of treatment
  Difference in Cmax and AUC, partial response vs no change patients: no significant difference
[3]; after 6 months vs month 1
  Increase in AUC: 50%
  Increase in mean end of month drug levels: 80%
[3]; female, im, 250 mg, 250 mg monthly i.m., first month, read-out: Cmax, first month (mean)
  Cmax: 10.5 ng/mL
[3]; female, im, 250 mg, 250 mg monthly i.m., sixth month, read-out: Cmax, sixth month (mean)
  Cmax: 12.6 ng/mL
[3]; female, intramuscular, no change patients, read-out: Median Cmax at month 6
  Cmax: 12.8 ng/mL
[3]; female, intramuscular, no change patients, read-out: Median Cmax on entry
  Cmax: 9.3 ng/mL
[3]; female, intramuscular, partial response patients, read-out: Median Cmax at month 6
  Cmax: 11 ng/mL
[3]; female, intramuscular, partial response patients, read-out: Median Cmax on entry
  Cmax: 7.7 ng/mL
[3]; female, intramuscular, progressive disease patients, read-out: Median Cmax on entry
  Cmax: 5.6 ng/mL
[3]; following both the 100 mg and 250 mg doses
  Release of drug from slow release formulation: continuous release of drug
[3]; intramuscular, 100 mg, patient 1 (progressive disease), 100 mg dose at entry, read-out: Cmax on entry
  Cmax: 4.4 ng/mL
[3]; intramuscular, 100 mg, patient 2 (no change), 100 mg dose at entry, read-out: Cmax on entry
  Cmax: 1.8 ng/mL
[3]; intramuscular, 100 mg, patient 3 (partial response), 100 mg dose at entry, read-out: Cmax on entry
  Cmax: 2.9 ng/mL
[3]; intramuscular, 100 mg, patient 4 (progressive disease), 100 mg dose at entry, read-out: Cmax on entry
  Cmax: 1.6 ng/mL
[3]; intramuscular, 250 mg, patient 2 (no change), 250 mg, read-out: Cmax at month 6
  Cmax: 7.5 ng/mL
[3]; intramuscular, 250 mg, patient 3 (partial response), 250 mg, read-out: Cmax at month 6
  Cmax: 9.9 ng/mL
[3]; intramuscular, 250 mg, patient 5 (partial response), 250 mg, read-out: Cmax at month 6
  Cmax: 17.6 ng/mL
[3]; intramuscular, 250 mg, patient 5 (partial response), 250 mg, read-out: Cmax on entry
  Cmax: 17.4 ng/mL
[3]; intramuscular, 250 mg, patient 6 (partial response), 250 mg, read-out: Cmax on entry
  Cmax: 7.7 ng/mL
[3]; intramuscular, 250 mg, patient 7 (progressive disease), 250 mg, read-out: Cmax on entry
  Cmax: 5.5 ng/mL
[3]; intramuscular, 250 mg, patient 8 (partial response), 250 mg, read-out: Cmax at month 6
  Cmax: 10 ng/mL
[3]; intramuscular, 250 mg, patient 8 (partial response), 250 mg, read-out: Cmax on entry
  Cmax: 5.9 ng/mL
[3]; intramuscular, 250 mg, patient 9 (progressive disease), 250 mg, read-out: Cmax on entry
  Cmax: 9.7 ng/mL
[3]; intramuscular, 250 mg, patient 10 (partial response), 250 mg, read-out: Cmax at month 6
  Cmax: 9.1 ng/mL
[3]; intramuscular, 250 mg, patient 10 (partial response), 250 mg, read-out: Cmax on entry
  Cmax: 14.8 ng/mL
[3]; intramuscular, 250 mg, patient 11 (progressive disease), 250 mg, read-out: Cmax on entry
  Cmax: 29.9 ng/mL
[3]; intramuscular, 250 mg, patient 12 (no change), 250 mg, read-out: Cmax at month 6
  Cmax: 12.2 ng/mL
[3]; intramuscular, 250 mg, patient 12 (no change), 250 mg, read-out: Cmax on entry
  Cmax: 7.2 ng/mL
[3]; intramuscular, 250 mg, patient 13 (progressive disease), 250 mg, read-out: Cmax at month 6
  Cmax: 15.8 ng/mL
[3]; intramuscular, 250 mg, patient 13 (progressive disease), 250 mg, read-out: Cmax on entry
  Cmax: 5.6 ng/mL
[3]; intramuscular, 250 mg, patient 14 (partial response), 250 mg, read-out: Cmax at month 6
  Cmax: 13.5 ng/mL
[3]; intramuscular, 250 mg, patient 14 (partial response), 250 mg, read-out: Cmax on entry
  Cmax: 9.1 ng/mL
[3]; intramuscular, 250 mg, patient 15 (no change), 250 mg, read-out: Cmax at month 6
  Cmax: 15.8 ng/mL
[3]; intramuscular, 250 mg, patient 15 (no change), 250 mg, read-out: Cmax on entry
  Cmax: 9 ng/mL
[3]; intramuscular, 250 mg, patient 16 (partial response), 250 mg, read-out: Cmax at month 6
  Cmax: 12 ng/mL
[3]; intramuscular, 250 mg, patient 16 (partial response), 250 mg, read-out: Cmax on entry
  Cmax: 4.4 ng/mL
[3]; intramuscular, 250 mg, patient 17 (no change), 250 mg, read-out: Cmax at month 6
  Cmax: 14.9 ng/mL
[3]; intramuscular, 250 mg, patient 17 (no change), 250 mg, read-out: Cmax on entry
  Cmax: 9.5 ng/mL
[3]; intramuscular, 250 mg, patient 18 (no change), 250 mg, read-out: Cmax at month 6
  Cmax: 10.2 ng/mL
[3]; intramuscular, 250 mg, patient 18 (no change), 250 mg, read-out: Cmax on entry
  Cmax: 10.3 ng/mL
[3]; intramuscular, 250 mg, patient 19 (no change), 250 mg, read-out: Cmax at month 6
  Cmax: 17.2 ng/mL
[3]; intramuscular, 250 mg, patient 19 (no change), 250 mg, read-out: Cmax on entry
  Cmax: 11 ng/mL
[3]; in vivo
  Difference in median Cmax and AUC between responders and non-responders: no significant difference
[3]; month 6 vs month 1, 250 mg
  Increase in AUC on multiple dosing: 1.5 fold
  Increase in Cmax on multiple dosing: 1.2 fold
[3]; monthly depot i.m., day 28
  Serum level at day 28 relative to threshold: above the projected therapeutic threshold
[3]; no change patients
  Median AUC at month 6: 190.9 ng·days/mL
  Median AUC on entry: 131.6 ng·days/mL
[3]; partial response patients
  Median AUC at month 6: 191.0 ng·days/mL
  Median AUC on entry: 118.7 ng·days/mL
[3]; patient 2 (no change), 250 mg
  AUC at month 6: 135.8 ng·days/mL
[3]; patient 3 (partial response), 250 mg
  AUC at month 6: 139.5 ng·days/mL
[3]; [6]
  AUC at month 6: 203.0 ng·days/mL
  AUC on entry: 188.4 ng·days/mL
[3]; patient 6 (partial response), 250 mg
  AUC on entry: 118.3 ng·days/mL
[3]; patient 7 (progressive disease), 250 mg
  AUC on entry: 105.7 ng·days/mL
[3]; [7]
  AUC at month 6: 175.2 ng·days/mL
  AUC on entry: 118.7 ng·days/mL
[3]; patient 9 (progressive disease), 250 mg
  AUC on entry: 138.2 ng·days/mL
[3]; [8]
  AUC at month 6: 191.7 ng·days/mL
  AUC on entry: 206.6 ng·days/mL
[3]; patient 11 (progressive disease), 250 mg
  AUC on entry: 289.3 ng·days/mL
[3]; patient 12 (no change), 250 mg
  AUC at month 6: 179.3 ng·days/mL
  AUC on entry: 143.6 ng·days/mL
[3]; [9]
  AUC at month 6: 243.7 ng·days/mL
  AUC on entry: 36.7 ng·days/mL
[3]; [10]
  AUC at month 6: 266.0 ng·days/mL
  AUC on entry: 134.6 ng·days/mL
[3]; patient 15 (no change), 250 mg
  AUC at month 6: 201.7 ng·days/mL
  AUC on entry: 107.8 ng·days/mL
[3]; [11]
  AUC at month 6: 190.8 ng·days/mL
  AUC on entry: 72.8 ng·days/mL
[3]; patient 17 (no change), 250 mg
  AUC at month 6: 297.6 ng·days/mL
  AUC on entry: 125.5 ng·days/mL
[3]; patient 18 (no change), 250 mg
  AUC at month 6: 156.1 ng·days/mL
  AUC on entry: 183.2 ng·days/mL
[3]; patient 19 (no change), 250 mg
  AUC at month 6: 308.0 ng·days/mL
  AUC on entry: 137.8 ng·days/mL
[3]; progressive disease patients
  Median AUC on entry: 79.4 ng·days/mL
